Source: US5147878A, “Aminoalkoxyphenyl derivatives, process of preparation and compositions containing the same” (Sanofi, priority 1986, dated 1992)
Values joined by “and” are separate entries in the source; they are usually repeats but may differ in a detail not shown here. Equal entries are not always repeated. Structures can show the parent of a compound that is named as a salt.

Experiments:
[1] = system: isoprenaline-induced acceleration in heart rate (anti-β effect); test: Antiadrenergic properties: anti-β effect (reduction of isoprenaline-induced tachycardia); type: in vivo; design: key to anti-β effect: +: for a reduction < 50%; ++: for a reduction ≥ 50%; +++: for a reduction sub-total (almost complete reduction); conditions: dog; for inhibition in vivo at 0.13 mg/kg: 0.13 mg/kg i.v.; for inhibition in vivo at 1 mg/kg: 1 mg/kg i.v.; for inhibition in vivo at 10 mg/kg: 10 mg/kg i.v., known compounds; for inhibition in vivo at 1.3 mg/kg: 1.3 mg/kg i.v.
Protocol: The object of this test is to determine the capacity of the compounds of the invention for reducing the increase in epinephrine-induced increase in blood-pressure (anti-α effect) and the isoprenaline-induced acceleration in heart rate (anti-β effect), in dogs previously anaesthatized with pentobarbital and atropinized. For each dog, the dose of epinephrine (between 3 and 10 μg/kg) which induced a reproducible increase in the blood-pressure of approximately 133×10^2 Pa and the dose of isoprenaline (1 to 2 μg/kg) which induced a reproducible increase in the heart rate of approximately 70 beats/min. were first determined. The dose of epinephrine and of isoprenaline, determined in this manner, were injected alternately every ten minutes and, after two successive reference responses had been obtained, an amount of the test compound was administered intravenously. The percentage reduction in the acceleration of the heart rate induced by the test compound compared with the reference tachycardia measured previously (approximately 70 beats) was recorded. In both cases, the results of the reduction in blood-pressure or in the heart rate have been expressed as follows: […]

[2] = system: epinephrine-induced increase in blood-pressure (anti-α effect); test: Antiadrenergic properties: anti-α effect (reduction of epinephrine-induced hypertension); type: in vivo; design: key to anti-α effect: +: for a reduction < 50%; ++: for a reduction ≥ 50%; +++: for a reduction sub-total (almost complete reduction); conditions: dog
Protocol: The object of this test is to determine the capacity of the compounds of the invention for reducing the increase in epinephrine-induced increase in blood-pressure (anti-α effect) and the isoprenaline-induced acceleration in heart rate (anti-β effect), in dogs previously anaesthatized with pentobarbital and atropinized. For each dog, the dose of epinephrine (between 3 and 10 μg/kg) which induced a reproducible increase in the blood-pressure of approximately 133×10^2 Pa and the dose of isoprenaline (1 to 2 μg/kg) which induced a reproducible increase in the heart rate of approximately 70 beats/min. were first determined. The dose of epinephrine and of isoprenaline, determined in this manner, were injected alternately every ten minutes and, after two successive reference responses had been obtained, an amount of the test compound was administered intravenously. The percentage reduction in the hypertension induced by the test compound compared with the reference hypertension previously obtained (approximately 100 mm Hg) was recorded. In both cases, the results of the reduction in blood-pressure or in the heart rate have been expressed as follows: […]

isolated rat aorta = test: Calcium inhibitory properties: contractile response to potassium-induced depolarization on isolated rat aorta; design: species or system isolated organ, male Wistar rats; conditions: for activity at 0.1 µM / activity at 0.01 µM / activity at 0.001 µM / activity at 1 µM: Rattus norvegicus, 1 h, read-out: % of the maximum contractional effect; for activity at 0.001 µM: 10^-9 M; for activity at 1 µM: 10^-6 M; for % of the maximum contractional effect: 60 min
Method in brief: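 Contraction is expressed as % of the pre-incubation maximum, measured after a 60 min compound exposure and a fresh K+ (100 mM KCl) depolarization. Tissue: aortic strips from male Wistar rats, 2 g tension, modified Krebs-bicarbonate, 37° C, CO2/O2 gassed.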

[3] = Canis lupus familiaris, iv, 0.52 mg/kg i.v.
[4] = Canis lupus familiaris, iv, 10 mg/kg i.v., known compounds
[5] = Canis lupus familiaris, iv, 0.027 mg/kg i.v.
[6] = Canis lupus familiaris, iv, 4.9 mg/kg i.v.
[7] = Canis lupus familiaris, iv, 0.5 mg/kg i.v.

Structure (SMILES)	activity at 0.1 µM (isolated rat aorta; 10^-7 M) [%]	activity at 0.01 µM (isolated rat aorta; 10^-8 M) [%]	activity at 0.001 µM (isolated rat aorta) [%]	activity at 1 µM (isolated rat aorta) [%]	other results
COc1ccc(CCN(C)CCCOc2ccc(S(=O)(=O)c3c(C(C)C)cc4ccccn34)cc2)cc1OC [Ex. 55, 2-isopropyl-3-[4-{3-[N-methyl-N-(3,4-dimethoxy-β-phenethyl)amino]propyloxy}benzenesulphonyl]indolizine oxalate]	9.5	34.1	68.7		inhibition in vivo at 0.13 mg/kg ([1]; Canis lupus familiaris, iv): ≥ 50%; anti-α effect ([2]; 0.13 mg/kg i.v.): +++
CC(C)c1nn2ccccc2c1S(=O)(=O)c1ccc(OCCCNC(C)(C)C)cc1 [Ex. 72, 2-isopropyl-3-{4-[3-(tertiobutylamino)propyloxy]benzenesulphonyl}pyrazolo[1,5-a]pyridine oxalate]	66.5	84		13.2	inhibition in vivo at 0.52 mg/kg [1, 3]: < 50%; inhibition in vivo at 0.52 mg/kg [2, 3]: ≥ 50%
COc1ccc(CCN(C)CCCOc2ccc(S(=O)(=O)c3c(C(C)C)cn4ncccc34)cc2)cc1OC [Ex. 76, 5-[4-{3-[N-methyl-N-(3,4-dimethoxy-β-phenethyl)amino]propyloxy}benzenesulphonyl]-6-isopropyl-pyrrolo[1,2-b]pyridazine oxalate]	0	18.1	68.1		inhibition in vivo at 0.13 mg/kg ([1]; Canis lupus familiaris, iv): < 50%; anti-α effect ([2]; 0.13 mg/kg i.v.): +++
CCc1cn2ccccc2c1S(=O)(=O)c1ccc(OCCCNCCc2ccc(OC)c(OC)c2)cc1 [Ex. 27, 2-Ethyl-1-{4-}3-(3,4-dimethoxy-β-phenethylamino)propyloxy]benzenesulphonyl}indolizine oxalate]	7.7	58.9	81.6		inhibition in vivo at 1 mg/kg ([1]; Canis lupus familiaris, iv): ≥ 50%; anti-α effect ([2]; 1 mg/kg i.v.): +++
CCCc1sc2ccccc2c1S(=O)(=O)c1ccc(OCCCN(C)CCc2ccc(OC)c(OC)c2)cc1 [Ex. 68, 2-n-Propyl-3-[4-{3-[N-methyl-N-(3,4-dimethoxy-β-phenethyl)amino]propyloxy}benzenesulphonyl]benzothiophene hemioxalate]	45.3	68.9		9.7	inhibition in vivo at 0.6 mg/kg ([1]; Canis lupus familiaris, iv, 0.6 mg/kg i.v.): ≥ 50%; anti-α effect ([2]; 0.6 mg/kg i.v.): +++
CCc1oc2ccccc2c1S(=O)(=O)c1ccc(OCCN(CC)CC)cc1 [Compound B, reference compound]	84.9			52.2	inhibition in vivo at 10 mg/kg ([1]; Canis lupus familiaris, iv): < 50%; anti-α effect ([2]; 10 mg/kg i.v., known compounds): +++
COc1ccc(CCN(C)CCCOc2ccc(S(=O)(=O)c3cc4ccccc4nc3C(C)C)cc2)cc1OC [Ex. 75, 2-isopropyl-3-[4-{3-[N-methyl-N-(3,4-dimethoxy-β-phenethyl)amino]propyloxy}benzenesulphonyl]quinoline oxalate]		89.7			inhibition in vivo at 1.3 mg/kg ([1]; Canis lupus familiaris, iv): < 50%; anti-α effect ([2]; 1.3 mg/kg i.v.): +++; % of the maximum contractional effect (isolated rat aorta; 10^-7 M, 0.1 µM): 54% and 79.6%
CCCCc1oc2ccccc2c1S(=O)(=O)c1ccc(OCCN(CC)CC)cc1 [Compound A, reference compound]	60.3	84.3		25	inhibition in vivo at 10 mg/kg ([1]; Canis lupus familiaris, iv): 0%; inhibition in vivo at 10 mg/kg [2, 4]: < 50%
CCCCc1oc2ccccc2c1S(=O)(=O)c1ccc(OCCCN(C)CCc2ccc(OC)c(OC)c2)cc1 [Ex. 69, 2-n-butyl-3-[4-{3-[N-methyl-N-(3,4-dimethoxy-β-phenethyl)amino]propyloxy}benzenesulphonyl]benzofuran hydrochloride]	59	76		36.8	anti-β effect ([1]; 1.2 mg/kg i.v.): + +; anti-α effect ([2]; 1.2 mg/kg i.v.): +++
CCc1cn2ccccc2c1S(=O)(=O)c1ccc(OCCCN2CCCCC2)cc1.Cl [Ex. 2, 2-ethyl-1-[4-(3-piperidinopropyloxy)benzenesulphonyl]indolizine hydrochloride]	79.8			22.6	inhibition in vivo at 5 mg/kg ([1]; Canis lupus familiaris, iv, 5 mg/kg i.v.): ≥ 50%; anti-α effect ([2]; 5 mg/kg i.v.): +++
COc1ccc(CCN(C)CCCOc2ccc(S(=O)(=O)c3c(C(C)C)oc4ccccc34)cc2)cc1OC [Ex. 66, 2-isopropyl-3-[4-{3-[N-methyl-N-(3,4-dimethoxy-β-phenethylamino]propyloxy}benzenesulphonylbenzofuran oxalate]	19.7	60.4	81.7	2.6	inhibition in vivo at 0.1 mg/kg ([1]; Canis lupus familiaris, iv, 0.1 mg/kg i.v.): < 50%; anti-α effect ([2]; 0.1 mg/kg i.v.): +++
CCCCN(CCCC)CC(O)COc1ccc(S(=O)(=O)c2c(C(C)C)cn3ccccc23)cc1.Cl (stereo not drawn) [Ex. 49, 2-isopropyl-1-{4-[3-(di-n-butylamino)-2-hydroxypropyloxy]-benzenesulphonyl}indolizine hydrochloride]	12.8	67.6	80.2	5.4	inhibition in vivo at 1 mg/kg ([1]; Canis lupus familiaris, iv): ≥ 50%; anti-α effect ([2]; 1 mg/kg i.v.): +++
CCCc1oc2ccccc2c1S(=O)(=O)c1ccc(OCCCN(C)CCc2ccc(OC)c(OC)c2)cc1 [Ex. 67, 2-n-Propyl-3-[4-{3-[N-methyl-N-(3,4-dimethoxy-β-phenethyl)amino]propyloxy}benzenesulphonyl]benzofuran oxalate]	38.3	80.9		9.3	inhibition in vivo at 1.3 mg/kg ([1]; Canis lupus familiaris, iv): < 50%; anti-α effect ([2]; 1.3 mg/kg i.v.): +++
COc1cc(CCNCCCOc2ccc(S(=O)(=O)c3c(C(C)C)cn4ccccc34)cc2)cc(OC)c1 [Ex. 133, 1-[4-{3-[N-(3,5-dimethoxy-β-phenethyl)amino]propyloxy}benzenesulphonyl]-2-isopropyl-indolizine acid oxalate]	6.2	30.5	73.4		inhibition in vivo at 0.027 mg/kg [1, 5]: < 50%; inhibition in vivo at 0.027 mg/kg [2, 5]: ≥ 50%; % of the maximum contractional effect (isolated rat aorta; 10^-8 M, 0.01 µM): 30.3%
CCCCN(CCCC)CCCOc1ccc(S(=O)(=O)c2ccccc2)cc1 [Ex. 64, 4-[3-(di-n-butylamino)propyloxy]benzenesulphonylbenzene oxalate]	85.3			32.4	inhibition in vivo at 4.9 mg/kg [1, 6]: ≥ 50%; inhibition in vivo at 4.9 mg/kg [2, 6]: < 50%
CCCCN(CCCC)CCCOc1ccc(S(=O)(=O)c2c(C(C)C)cn3ccccc23)cc1 [Ex. 1, 2-isopropyl-1-{4-[3-(di-n-butylamino)propyloxy]benzenesulphonyl}indolizineoxalate]	18.9	61		2	inhibition in vivo at 0.5 mg/kg [1, 7]: ≥ 50%; inhibition in vivo at 0.5 mg/kg [2, 7]: ≥ 50%
CCCN(CCC)CCCOc1ccc(C(=O)c2c(CC)cn3ccccc23)cc1 [Compound E, reference compound]	89.1			37.9	inhibition in vivo at 10 mg/kg ([1]; Canis lupus familiaris, iv): ≥ 50%; inhibition in vivo at 10 mg/kg [2, 4]: < 50%
COc1ccc(CCN(C)CCCOc2ccc(S(=O)(=O)c3ccccc3)cc2)cc1OC [Ex. 63, 4-{3-[N-methyl-N-(3,4-dimethoxy-β-phenethyl)amino]propyloxy}benzenesulphonylbenzene hydrochloride]	73.7			21.4	inhibition in vivo at 10.1 mg/kg ([1]; Canis lupus familiaris, iv, 10.1 mg/kg i.v.): ≥ 50%; anti-α effect ([2]; 10.1 mg/kg i.v.): +++
CC(C)c1cn2ccccc2c1S(=O)(=O)c1ccc(OCCCN(C)C)cc1 [Ex. 14, 2-Isopropyl-1-{4-[3-(dimethylamino)propyloxy]benzenesulphonyl}indolizine]				32.6	anti-β effect ([1]; 2.5 mg/kg i.v.): +++; anti-α effect ([2]; 2.5 mg/kg i.v.): +++
